Legend:
Assay in all cases: relative viability (nuclei count vs DMSO), 5 days (fraction); higher = more cells survive
[1] = compound: CCCS(=O)(=O)Nc1ccc(F)c(C(=O)c2c[nH]c3ncc(-c4ccc(Cl)cc4)cc23)c1F [Vemurafenib]
Outline: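 In 1536-well plates, lung cancer cell lines rested overnight at 37 °C before five library-drug doses (not always all listed), √10 apart, were pinned onto vehicle-anchored plates. Nuclei were counted with MetaXpress from 4× Hoechst images taken after 5 days without medium change. Viability compares treated-well with vehicle-well nuclei as a median over plates, and plates needed control CV below 25% plus at least one doubling to pass.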

[2] = compound: CCCS(=O)(=O)Nc1ccc(F)c(C(=O)c2c[nH]c3ncc(-c4ccc(Cl)cc4)cc23)c1F [Vemurafenib] + CC(C)C[C@H](NC(=O)[C@H](Cc1ccccc1)NC(=O)c1cnccn1)B(O)O [Bortezomib] (partner 0.002 µM)
Outline: (§1)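 Lung cancer cell lines, seeded in 1536-well plates, were treated the following day by pin tool with a single drug or with five library-drug doses (not always all listed) in √10 steps on top of a fixed anchor-drug dose. Cells were fixed and nuclei stained in one step after 5 days, and nuclei were counted. Relative viability is the nuclei count for treated wells divided by that for vehicle wells, reported as medians of duplicate plates.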

[3] = compound: COc1cccc2cc(-c3nc([C@H]4CC[C@H](C(=O)O)CC4)n4ncnc(N)c34)[nH]c12 [OSI-027] + Cc1nc(Nc2ncc(C(=O)Nc3c(C)cccc3Cl)s2)cc(N2CCN(CCO)CC2)n1 [Dasatinib] (partner 0.075 µM)
Outline: as §1

[4] = compound: Cc1nc(NC(=O)N2CCC[C@H]2C(N)=O)sc1-c1ccnc(C(C)(C)C(F)(F)F)c1 [Alpelisib] + CC1(C)CCC(c2ccc(Cl)cc2)=C(CN2CCN(c3ccc(C(=O)NS(=O)(=O)c4ccc(N[C@H](CCN5CCOCC5)CSc5ccccc5)c(S(=O)(=O)C(F)(F)F)c4)cc3)CC2)C1 [Navitoclax] (partner 0.5 µM)
Outline: as §1

UMC-11
relative viability ([1]; 0.03162 µM): 0.923 | relative viability ([1]; 0.1 µM): 1.02 | relative viability ([1]; 0.3162 µM): 0.876 | relative viability ([1]; 1 µM): 0.777 | relative viability ([2]; first compound 0.03162 µM): 0.468 | relative viability ([2]; first compound 0.1 µM): 0.713 | relative viability ([2]; first compound 0.3162 µM): 0.57 | relative viability ([2]; first compound 1 µM): 0.296 | relative viability ([3]; first compound 0.01 µM): 0.537 | relative viability ([3]; first compound 0.03162 µM): 0.457 | relative viability ([3]; first compound 0.1 µM): 0.404 | relative viability ([3]; first compound 0.3162 µM): 0.434 | relative viability ([3]; first compound 1 µM): 0.299 | relative viability ([4]; first compound 0.04 µM): 0.319 | relative viability ([4]; first compound 0.1265 µM): 0.341 | relative viability ([4]; first compound 0.4 µM): 0.336 | relative viability ([4]; first compound 1.265 µM): 0.325 | relative viability ([4]; first compound 4 µM): 0.273

Reference: the supplement of paper PMC10307832
